Experimental data taken from publication PMC3420821 (Chemistry & biology, 2011).

Legend:
CB2 receptors [1] = molecular target: T1, CB2 receptors (Mus musculus, UniProt P47936); assay: NIR-mbc94 binding competition in intact BV-2 cells; conditions: read-out: Ki (competition for NIR-mbc94 binding)
CB2 receptors [2] = molecular target: T1, CB2 receptors; type: binding; conditions: saturation, homogenates of CB2-mid DBT cells
CB2 receptor mRNA = assay: qPCR of CB2 receptor mRNA in primary microglia; type: cell-based, mouse; conditions: 72 hr
CB2 receptors [3] = conditions: ref Rinaldi-Carmona et al., 1998; cited from earlier work

T1 sequence (P47936 whole entry): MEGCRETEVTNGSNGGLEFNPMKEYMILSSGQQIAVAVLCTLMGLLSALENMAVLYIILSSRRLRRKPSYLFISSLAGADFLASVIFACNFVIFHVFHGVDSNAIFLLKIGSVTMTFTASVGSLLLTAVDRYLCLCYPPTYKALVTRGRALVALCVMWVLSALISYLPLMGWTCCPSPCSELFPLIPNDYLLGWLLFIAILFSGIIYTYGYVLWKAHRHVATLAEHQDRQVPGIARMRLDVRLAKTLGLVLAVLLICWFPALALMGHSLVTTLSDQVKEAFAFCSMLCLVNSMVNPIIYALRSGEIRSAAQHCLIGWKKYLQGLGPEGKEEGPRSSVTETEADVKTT

`Cc1c(C(=O)c2cccc3ccccc23)c2cccc3c2n1[C@H](CN1CCOCC1)CO3` [WIN55212-2] gave a Ki (CB2 receptors [1]) of 3 nM.

In the case of `CCCCCCC(C)(C)c1ccc([C@@H]2C[C@H](O)CC[C@H]2CCCO)c(O)c1` [[^3H]-CP-55,940], the Kd (CB2 receptors [2]; read-out: Kd of [3H]-CP-55,940) is reported as 3.1 nM and the “Bmax of [3H]-CP-55,940” value (CB2 receptors [2]) is reported as 6 pmol/mg.

In the case of “IL-4: cytokine that promotes alternative activation phenotype in macrophages/microglia”, the “increase of CB2 receptor mRNA” value (CB2 receptor mRNA) is reported as ~ 5 fold.

In the case of SR144528, the “affinity at CB2 receptors” value (CB2 receptors [3]) is given as “nanomolar affinity”.

With TGFβ the “effect on CB2 receptor expression (mRNA)” value (CB2 receptor mRNA) was “did not affect”.
